Test results taken from PubChem BioAssay (NCI).
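1) Cells in 96-well plates. 2) Compound, 48 h, 5 concentrations. 3) Linear interpolation between surrounding doses. 4) Unreached endpoint = highest concentration. The concentration for 50% growth inhibition is given as GI50. TGI denotes the concentration required for complete inhibition of growth.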

Tests used:
Test in all cases: NCI-60 cell line screen, 48 h
UO-31 renal = test system: UO-31 renal
MALME-3M melanoma = test system: MALME-3M melanoma
HCT-116 colon = test system: HCT-116 colon
DMS 114 small cell lung = test system: DMS 114 small cell lung
HOP-18 NSCLC = test system: HOP-18 NSCLC
OVCAR-8 ovarian = test system: OVCAR-8 ovarian
DMS 273 small cell lung = test system: DMS 273 small cell lung
M14 melanoma = test system: M14 melanoma
OVCAR-5 ovarian = test system: OVCAR-5 ovarian
T-47D breast = test system: T-47D breast

Compound | TGI (UO-31 renal) | TGI (MALME-3M melanoma) | TGI (HCT-116 colon) | TGI (DMS 114 small cell lung) | TGI (HOP-18 NSCLC) | TGI (OVCAR-8 ovarian) | TGI (DMS 273 small cell lung) | TGI (M14 melanoma) | TGI (OVCAR-5 ovarian) | GI50 (UO-31 renal) | GI50 (MALME-3M melanoma) | GI50 (HCT-116 colon) | GI50 (DMS 114 small cell lung) | GI50 (HOP-18 NSCLC) | GI50 (OVCAR-8 ovarian) | GI50 (M14 melanoma) | GI50 (OVCAR-5 ovarian) | GI50 (T-47D breast) | TGI (T-47D breast)
CC(C)N1CCC2(CC1)NNc1ncccc1-n1cccc12 | > 100 µM | > 100 µM | > 100 µM | > 100 µM | > 100 µM | > 100 µM | > 100 µM | > 100 µM | > 100 µM |  |  |  |  |  |  |  |  |  | 
CN(C)C(=S)/N=c1\ss/c(=N\C(=S)N(C)C)n1-c1ccc(Cl)cc1 | > 100 µM |  | > 100 µM |  |  | > 100 µM | > 100 µM | > 100 µM | > 100 µM |  |  |  |  |  |  |  |  |  | 
CCOC(=O)[C@H]1CSC[C@@H](C(=O)OC)N1 | > 100 µM | > 100 µM | > 100 µM | > 100 µM |  | > 100 µM | > 100 µM | > 100 µM | > 100 µM |  |  |  |  |  |  |  |  |  | 
CC(C)[NH-].CC(C)[NH-].O.O.[Cl][Pt+2][Cl] | 356 µM | 57.8 µM | 69.3 µM | 44.1 µM | 337 µM | 167 µM |  | 139 µM | 145 µM | 147 µM | 19.4 µM | 20.6 µM | 10.9 µM | 60.5 µM | 36.5 µM | 37.5 µM | 51.1 µM | 50.9 µM | 381 µM
COC(=O)c1ccc(NC(=O)c2cc(OC)c(OC)c(OC)c2)cc1 | 66.9 µM | > 100 µM | > 100 µM | 0.706 µM | > 100 µM | > 100 µM | > 100 µM | > 100 µM |  |  |  |  |  |  |  |  |  |  | 
O=C(O)C(C(=O)C(=O)C(C(=O)O)c1ccc(Cl)cc1)c1ccc(Cl)cc1 (stereo not drawn) | 15.4 µM | 10.4 µM | 12.1 µM | 5.64 µM | 18.1 µM | 6.23 µM | 12.9 µM | 16.4 µM | 13.6 µM |  |  |  |  |  |  |  |  |  | 
O=c1cc(-c2ccccc2)nc(/C=C(\O)c2ccncc2)n1-c1ccccc1 | > 100 µM | > 100 µM | > 100 µM | > 100 µM | > 100 µM | > 100 µM | > 100 µM | > 100 µM | > 100 µM |  |  |  |  |  |  |  |  |  | 
COc1ccc(OC)c(NCC#N)c1 | > 100 µM | > 100 µM | > 100 µM | > 100 µM | > 100 µM | > 100 µM | > 100 µM | > 100 µM |  |  |  |  |  |  |  |  |  |  | 
CC(=O)Nc1ccc(-c2nnc(SCC(=O)Nc3cccc([N+](=O)[O-])c3)o2)cc1 | 39.8 µM | 23.9 µM | 27.4 µM | 22.3 µM | 65.9 µM | 33.4 µM | 23.5 µM | 29.7 µM | 50.2 µM |  |  |  |  |  |  |  |  |  | 
COc1cc2cc3c4c(cc(OC)c(OC)c4c2cc1OC)CCN3C(=O)N(C)C | > 100 µM | > 100 µM | > 100 µM | > 100 µM |  | > 100 µM | > 100 µM | > 10 µM | > 100 µM |  |  |  |  |  |  |  |  |  | 
CCOc1ccccc1N1C(=O)C(=O)C(c2nc3ccccc3o2)/C(=N\N)C1=O (stereo not drawn) | 91 µM | > 100 µM | > 100 µM | > 100 µM |  | > 100 µM | > 100 µM | > 100 µM | > 100 µM |  |  |  |  |  |  |  |  |  | 
NC(=O)C(=Cc1ccc(CP(=O)(O)O)cc1)C(N)=O | > 100 µM | > 100 µM | > 100 µM | > 100 µM | > 100 µM | > 100 µM | > 100 µM | > 100 µM | > 100 µM |  |  |  |  |  |  |  |  |  | 
C/C(CC(=O)Nc1ccc(Cl)cc1)=N\NC(=O)C[n+]1ccccc1 | > 100 µM | > 100 µM | > 100 µM | > 100 µM |  | > 100 µM | > 100 µM | > 100 µM | > 100 µM |  |  |  |  |  |  |  |  |  | 
NC(CC(=O)Nc1ccc(Cl)cc1)=Nc1ccccc1 | > 100 µM | > 100 µM | > 100 µM |  |  | > 100 µM | > 100 µM | > 100 µM | > 100 µM |  |  |  |  |  |  |  |  |  | 
CCCCN=C(NC#N)N(Cc1ccccc1)Cc1ccccc1 | 58 µM | > 100 µM | 39.5 µM |  | > 100 µM | > 100 µM | 37.1 µM | 53.3 µM | 87.5 µM |  |  |  |  |  |  |  |  |  | 
O=c1cc(-c2ccccc2)[nH]c2c(Cl)cccc12 | > 100 µM | > 100 µM | > 100 µM | > 100 µM |  | > 100 µM | > 100 µM | > 100 µM |  |  |  |  |  |  |  |  |  |  | 
CC(C)(O)[C@@H]1CC[C@@]2(C)CCC[C@H](O)[C@H]2C1 | > 100 µM | > 100 µM | > 100 µM | > 100 µM | > 100 µM | > 100 µM | > 100 µM | > 100 µM | > 100 µM |  |  |  |  |  |  |  |  |  | 
Cc1ccc(C(=O)N2c3ccccc3N(C)n3cccc3C2CC(=O)O)cc1 (stereo not drawn) | > 100 µM | > 100 µM |  | > 100 µM |  | > 100 µM | > 100 µM | > 100 µM | > 100 µM |  |  |  |  |  |  |  |  |  | 

Compound | TGI (UO-31 renal) | TGI (MALME-3M melanoma) | TGI (HCT-116 colon) | TGI (DMS 114 small cell lung) | TGI (HOP-18 NSCLC) | TGI (OVCAR-8 ovarian) | TGI (DMS 273 small cell lung) | TGI (M14 melanoma) | TGI (OVCAR-5 ovarian) | GI50 (UO-31 renal) | GI50 (MALME-3M melanoma) | GI50 (HCT-116 colon) | GI50 (DMS 114 small cell lung) | GI50 (HOP-18 NSCLC) | GI50 (OVCAR-8 ovarian) | GI50 (M14 melanoma) | GI50 (OVCAR-5 ovarian) | GI50 (T-47D breast) | TGI (T-47D breast)
COc1cc(C=O)c(-c2cc3c(cc2C2(C)OCCS2)OCO3)c(OC)c1OC (stereo not drawn) | 64.2 µM | 90.8 µM | 28.2 µM | 71.8 µM |  | > 75.1 µM | 36.8 µM | 16.1 µM | 129 µM |  |  |  |  |  |  |  |  |  | 
CCCCCCCC(=O)OCC1OC(n2cc(F)c(=O)[nH]c2=O)C(NC(=O)OCc2ccccc2)C(O)C1O (stereo not drawn) | > 100 µM | > 100 µM | > 100 µM | > 100 µM |  | > 100 µM | > 100 µM | > 100 µM |  |  |  |  |  |  |  |  |  |  | 
O=C1C2=C(CCCCC2)C2CCCCC12O (stereo not drawn) | > 100 µM | > 100 µM | > 100 µM | > 100 µM |  | > 100 µM | > 100 µM | > 100 µM |  |  |  |  |  |  |  |  |  |  | 
CCOC(=O)c1cc2c(cn1)[nH]c1cccc(N)c12 | > 100 µM | > 100 µM | > 100 µM | > 100 µM | > 100 µM | > 100 µM | > 100 µM | > 100 µM | > 100 µM |  |  |  |  |  |  |  |  |  | 
O=C1C2CC=CCC2C(=O)C12CCc1ccccc12 (stereo not drawn) | > 100 µM | > 100 µM |  |  | > 100 µM | > 100 µM | > 100 µM | > 100 µM |  |  |  |  |  |  |  |  |  |  | 
O=[P+](O)c1cc2ccccc2c2ccccc12 |  |  | > 100 µM | > 100 µM | > 100 µM | > 100 µM | > 100 µM | > 100 µM |  |  |  |  |  |  |  |  |  |  | 
CN(C(=O)C12C3(C(=O)C(C)(C)C)C4C5(C#N)C3C1(C(=O)C(C)(C)C)C5C42C(=O)C(C)(C)C)C(C)(C)C (stereo not drawn) | > 50 µM | > 50 µM | > 50 µM | > 50 µM |  | > 50 µM | > 50 µM | > 50 µM | > 50 µM |  |  |  |  |  |  |  |  |  | 
COc1ccc(-c2nnc(-c3c(C)n(C)n(-c4ccccc4)c3=O)o2)cc1 | > 100 µM | > 100 µM | > 100 µM | > 100 µM | > 100 µM | > 100 µM | > 100 µM | > 100 µM |  |  |  |  |  |  |  |  |  |  | 
Cc1ccc(S(=O)(=O)C2c3nc4ccccc4cc3-c3nc4ccccc4nc32)cc1 (stereo not drawn) | > 100 µM | > 100 µM | > 100 µM | > 100 µM |  | > 100 µM | > 100 µM | > 100 µM | > 100 µM |  |  |  |  |  |  |  |  |  | 
O=C1c2cc(-c3ccccc3)ccc2-c2c1c1ccc([N+](=O)[O-])cc1c(=O)n2CCCBr | > 50 µM | > 43.4 µM | > 50 µM |  |  | > 50 µM |  | > 50 µM | > 50 µM | > 50 µM |  | > 50 µM |  |  | > 50 µM | > 50 µM | > 50 µM | > 50 µM | > 50 µM
N#Cc1ccc(Nc2cnc3ccc(N)cc3n2)cc1 | > 100 µM | > 100 µM | > 100 µM | > 100 µM |  | > 100 µM | > 100 µM | > 100 µM | > 100 µM |  |  |  |  |  |  |  |  |  | 
O=C(O)c1ccc([S-])cc1.[Au+].c1ccc(CN2[CH-]N(Cc3ccccc3)C(c3ccccc3)=C2c2ccccc2)cc1 | 1.27 µM | 0.797 µM | 1.26 µM |  |  | 1.66 µM |  | 1.61 µM | 2.2 µM | 0.311 µM | 0.249 µM | 0.301 µM |  |  | 0.417 µM | 0.385 µM | 0.918 µM | 0.312 µM | 1.53 µM
CC(=O)OCc1ccc(O)c(C=O)c1 | > 100 µM | > 100 µM | > 100 µM |  |  | > 100 µM |  | > 100 µM | > 100 µM |  |  |  |  |  |  |  |  |  | > 100 µM
Cc1ccc(C(=O)/C(=C\c2ccc([N+](=O)[O-])cc2)S(=O)Cc2ccc(F)cc2)cc1 (stereo not drawn) | 2.69 µM | 3.33 µM | 1.79 µM |  |  | 4.08 µM |  | 2.89 µM | 3.93 µM | 1.36 µM | 1.57 µM | 0.499 µM |  |  | 1.88 µM | 1.44 µM | 1.96 µM | 1.91 µM | 5.51 µM
CCCCCCCCC(O)C#CC(N)=O (stereo not drawn) | 21.6 µM | 31.8 µM | 16.6 µM | 17.9 µM | 26 µM | 21.4 µM | 20.3 µM | 25.6 µM | 43.9 µM |  |  |  |  |  |  |  |  |  | 
O=c1nc(NC(c2ccccc2)(c2ccccc2)c2ccccc2)ccn1CCO | > 100 µM | > 100 µM | > 100 µM | > 100 µM | > 100 µM | > 100 µM |  |  | > 100 µM |  |  |  |  |  |  |  |  |  | 
COc1cc2c(cc1OC)C(CC1(O)CCCCC1)N(S(=O)(=O)c1ccc(C)cc1)CC2 (stereo not drawn) | > 10 µM | > 10 µM | > 10 µM |  |  | > 10 µM |  | > 10 µM | > 10 µM | > 10 µM | > 10 µM | > 10 µM |  |  | > 10 µM | > 10 µM | > 10 µM | > 10 µM | > 10 µM
